From patent publication US5358947A, “Angiotensin II receptor blocking 2,3-substituted pyrazolo[1,5-a]-1,3,5-triazin-4(3H)-ones” (American Cyanamid Company, priority 1993, dated 1994)
Where “and” joins values, the source holds several entries; their conditions need not be identical. Identical values can stand only once.

Test system: ANGIOTENSIN II (AII) VASOPRESSOR RESPONSE
Test: AII Challenge: angiotensin II (AII) vasopressor response in conscious rats
Assay type: in vivo
Parameters: Response After AII / Change / Average Change: unit not given here
Conditions: for Response After AII / Change / Control Before AII: individual rat; for Control Before AII: in mmHg (unit assumed); for % Inhibition / Average Change: n = 2
How it was run: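 Conscious male Okamoto-Aoki SHR (16-20 weeks, ~330 g), aorta/vena cava cannulated, challenged with AII 0.05 and 0.1 ug/kg i.v. before and at 30-300 min after compound dosed i.v., i.p. or orally. Systolic pressure rise expressed relative to each rat's predose response (100%).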

[1] = 10 mg/kg i.v., AII 0.05 mcg/kg, 30 min post dose
[2] = 10 mg/kg i.v., AII 0.05 mcg/kg, 30 min post dose, listed as Ex. 20
[3] = 10 mg/kg i.v., AII 0.1 mcg/kg, 30 min post dose, listed as Ex. 20
[4] = 10 mg/kg i.v., AII 0.1 mcg/kg, 30 min post dose
[5] = 20 mg/kg i.v., AII 0.05 mcg/kg, 60 min post dose
[6] = 20 mg/kg i.v., AII 0.05 mcg/kg, 60 min post dose, listed as Ex. 20
[7] = 20 mg/kg i.v., AII 0.05 mcg/kg, 90 min post dose
[8] = 20 mg/kg i.v., AII 0.05 mcg/kg, 90 min post dose, listed as Ex. 20
[9] = 20 mg/kg i.v., AII 0.05 mcg/kg, 120 min post dose
[10] = 20 mg/kg i.v., AII 0.05 mcg/kg, 120 min post dose, listed as Ex. 20
[11] = 20 mg/kg i.v., AII 0.05 mcg/kg, 180 min post dose
[12] = 20 mg/kg i.v., AII 0.05 mcg/kg, 180 min post dose, listed as Ex. 20
[13] = 20 mg/kg i.v., AII 0.05 mcg/kg, 240 min post dose
[14] = 20 mg/kg i.v., AII 0.05 mcg/kg, 240 min post dose, listed as Ex. 20
[15] = 20 mg/kg i.v., AII 0.05 mcg/kg, 300 min post dose, listed as Ex. 20
[16] = 20 mg/kg i.v., AII 0.05 mcg/kg, 300 min post dose
[17] = 20 mg/kg i.v., AII 0.1 mcg/kg, 60 min post dose
[18] = 20 mg/kg i.v., AII 0.1 mcg/kg, 60 min post dose, listed as Ex. 20
[19] = 20 mg/kg i.v., AII 0.1 mcg/kg, 90 min post dose
[20] = 20 mg/kg i.v., AII 0.1 mcg/kg, 90 min post dose, listed as Ex. 20
[21] = 20 mg/kg i.v., AII 0.1 mcg/kg, 120 min post dose
[22] = 20 mg/kg i.v., AII 0.1 mcg/kg, 120 min post dose, listed as Ex. 20
[23] = 20 mg/kg i.v., AII 0.1 mcg/kg, 180 min post dose
[24] = 20 mg/kg i.v., AII 0.1 mcg/kg, 180 min post dose, listed as Ex. 20
[25] = 20 mg/kg i.v., AII 0.1 mcg/kg, 240 min post dose, listed as Ex. 20
[26] = 20 mg/kg i.v., AII 0.1 mcg/kg, 240 min post dose
[27] = 20 mg/kg i.v., AII 0.1 mcg/kg, 300 min post dose, listed as Ex. 20
[28] = 20 mg/kg i.v., AII 0.1 mcg/kg, 300 min post dose

CCCCc1nc2c(Br)cnn2c(=O)n1Cc1ccc(-c2ccccc2-c2nn[nH]n2)cc1 [Example 20]
Response After AII [1]: 245 | Change [2]: 38 and 15 | Response After AII [2]: 215 | Control Before AII [2]: 207 and 200 | % Inhibition [1]: 34% | Average Change [1]: 26.5 | Change [3]: 45 and 35 | Response After AII [3]: 260 and 235 | Control Before AII [3]: 215 and 200 | % Inhibition [4]: 36% | Average Change [4]: 40 | Change [5]: 20 | Response After AII [5]: 200 | Response After AII [6]: 215 | Control Before AII [6]: 195 and 180 | % Inhibition [5]: 50% | Average Change [5]: 20 | Response After AII [7]: 200 | Change [8]: 10 and 25 | Response After AII [8]: 225 | Control Before AII [8]: 215 and 175 | % Inhibition [7]: 56% | Average Change [7]: 17.5 | Response After AII [9]: 250 | Change [10]: 45 and 20 | Response After AII [10]: 215 | Control Before AII [10]: 205 and 195 | % Inhibition [9]: 19% | Average Change [9]: 32.5 | Response After AII [11]: 210 | Control Before AII [11]: 185 | Change [12]: 40 and 25 | Response After AII [12]: 225 | % Inhibition [11]: 19% | Average Change [11]: 32.5 | Response After AII [13]: 230 | Control Before AII [13]: 185 | Change [14]: 45 and 40 | Response After AII [14]: 225 | % Inhibition [13]: -6% | Average Change [13]: 42.5 | Change [15]: 50 and 35 | Response After AII [15]: 240 and 235 | Control Before AII [15]: 190 and 200 | % Inhibition [16]: -6% | Average Change [16]: 42.5 | Response After AII [17]: 200 | Change [18]: 15 and 20 | Response After AII [18]: 215 | Control Before AII [18]: 200 and 180 | % Inhibition [17]: 72% | Average Change [17]: 17.5 | Response After AII [19]: 245 | Change [20]: 40 and 30 | Response After AII [20]: 215 | Control Before AII [20]: 205 and 185 | % Inhibition [19]: 44% | Average Change [19]: 35 | Response After AII [21]: 250 | Change [22]: 35 and 20 | Response After AII [22]: 215 | Control Before AII [22]: 215 and 195 | % Inhibition [21]: 56% | Average Change [21]: 27.5 | Response After AII [23]: 225 | Change [24]: 30 and 60 | Control Before AII [24]: 195 and 165 | % Inhibition [23]: 28% | Average Change [23]: 45 | Change [25]: 60 and 55 | Response After AII [25]: 260 and 245 | Control Before AII [25]: 200 and 190 | % Inhibition [26]: 8% | Average Change [26]: 57.5 | Change [27]: 45 and 55 | Response After AII [27]: 265 and 245 | Control Before AII [27]: 220 and 190 | % Inhibition [28]: 20% | Average Change [28]: 50
